Consider two molecules from US20120064102A1, “PEPTIDE INDUCING XAGE-1B-SPECIFIC IMMUNE REACTION AND UTILIZATION OF SAME” (NATIONAL UNIVERSITY CORPORATION OKAYAMA UNIVERSITY, priority 2009, published 2012).

One assay has as its system U937. Briefly: intake of FAM-conjugated NY-ESO-1 f peptide into antigen-presenting cell. The format is cell-based, human. The note with it: 3 hours after the start of culturing; U937 primed with 20 ng/ml PMA. The method, then:
Initially, the inventors of the present invention analyzed the point (A). Specifically, U937, which is a human monocytic leukemia strain, was subjected to priming using 20 ng/ml of PMA, and then cultured with NY-ESO-1 f peptide conjugated with FAM™. Localization of NY-ESO-1 f peptide in U937 was confirmed by observing fluorescence of FAM™ which is a fluorescent pigment.
FIG. 27 is a view illustrating that NY-ESO-1 f peptide was taken into an antigen-presenting cell (U937).

In assay [1] the test system is NY-ESO-1-specific CD4-positive T cell clones (E-8A1). Briefly: antigen presentation by MHC class II (IFN-γ ELISA). The format is cell-based, human. The protocol:
Specifically, NY-ESO-1-specific CD4-positive T cell clones (E-8A1) were subjected to IFN-γ ELISA by use of self-EBV-B cells as antigen-presenting cells, in the presence of peptide NY-ESO-1 f peptide at a temperature condition of 4° C. or 37° C.
“E/T ratio” of the horizontal axis of FIG. 28 indicates a ratio of co-culturing between Effector (T cell) and Target (EBV-B cell).

The test system of assay [2] is CD8-positive T cell clones (TK-f01 2H10). Briefly: antigen presentation by MHC class I, cross-presentation (IFN-γ ELISA). The class given is cell-based, human. The protocol: Further, it was confirmed that NY-ESO-1 f peptide is presented as an antigen also by MHC class I, i.e., cross-presented (FIG. 29). Specifically, in a non-serum AIM-V culture medium containing 1 μM of NY-ESO-192-100 short-chain peptide, 1 μM of NY-ESO-191-110 f peptide or 10 μg/ml of recombinant protein, dendritic cells (5×10^5 cells/ml) were cultured and pulsed with antigen, in the presence/absence of 10 μM of cytochalasin B. The cells were washed and then CD8-positive T cell clones (TK-f01 2H10) (5×10^3 cells) were cultured at 37° C. for 24 hours with the dendritic cells (5×10^3 cells) pulsed with the antigens. The amount of production of IFN-γ by antigen stimulation was measured by ELISA.
In general terms: ELISA stands for enzyme-linked immunosorbent assay.

The subject of assay [3] is HLA-B*3501-restricted CD8-positive T cell clones (8C187-4). Kind of assay: IFN-γ ELISA with CD8-positive T cell clones 8C187-4. The format is cell-based, human. Particulars: clone 8C187-4. The source says:
FIG. 19 is a view showing that peptide 21-36 is a peptide recognized by T cell clones (8C187-4).
As shown in (c) of FIG. 19, when CD8-positive T cell clones (8C187-4) obtained from KLU 187 were stimulated with EBV-B cells expressing HLA-B*3501 as antigen-presenting cells, production of XAGE-1b-specific IFN-γ were detected.

The subject of assay [4] is XAGE-1b-specific IgG antibody. Kind of assay: ELISA of XAGE-1b-specific IgG antibody in serums. The class given is binding, human. The protocol:
Full-length XAGE-1b protein (carbonic acid buffer, pH 9.6) with a concentration of 1 μg/ml was immobilized overnight on a 96 well plate (NUNC) at 4° C., and then the plate was washed with a washing solution (PBS/0.1% TWEEN). To the washed plate, 5 FCS/PBS was added and the plate was subjected to blocking at 37° C. for 1 hour. After the blocking, serum diluted 100 times, 300 times, 900 times, or 2700 times was added and the resultant was caused to react at 37° C. for 2 hours. Subsequently, the resultant was washed with the washing solution, and then peroxidase-binding goat anti-human IgG antibody (diluted 5000 times) (Jackson ImmunoResearch Laboratories, Inc.) was added to the resultant and this mixture was caused to react at 37° C. for 1 hour. After the reaction, the resultant was washed with the washing solution and a substrate solution to which hydrogen peroxide was added (solution obtained by dissolving orthophenylendiamine in 0.05M citric acid buffer (pH 5.0)) was added to stain the resultant. After the staining, 6N sulfuric acid was added to stop the reaction, and absorbance (wavelength of 490 nm) thereof was measured using a microplate reader (Bio-Rad Laboratories, Inc.).
Whether or not humoral immune responses to XAGE-1b were present were examined for 200 cases of subjects suffering from non-small-cell lung cancer (including 69 cases of subjects suffering from lung adenocarcinoma in the late stage) who had consulted Kawasaki Medical School Hospital from 2005 to 2009, and for 50 cases of normal healthy subjects serving as controls.
Specifically, whether or not XAGE-1b-specific IgG antibody was present in serums sampled from lung cancer patients was examined by ELISA.
Among them, the lung cancer patients of the very-strong zone, the strong zone, and the weak zone were regarded as serum antibody titer-positive patients.

Assay [5] concerns XAGE-1b-specific CD4-positive T cells (4C187-1). Briefly: natural epitope recognition by CD4 clone T-cells 4C187-1. The class given is cell-based, human. The note with it: clone 4C187-1.

Consider “NY-ESO-1 f peptide: long-chain peptide made up of 20 amino acids of NY-ESO-1 (YLAMPFATPMEAELARRSLA)”, for which the “intake into antigen-presenting cells” value in the assay on U937 is recorded as “taken into the cells”. Moreover, the “effect of low temperature on reaction” value in assay [1] (low temperature (4° C.) blocks intake) is recorded as “decrease in a reaction to CD4-positive T cells”. In addition, the “antigen presentation by MHC class II” value in assay [1] (self-EBV-B cells as antigen-presenting cells, 4° C. or 37° C.) is on record as “presented as an antigen by MHC class II”. In addition, in assay [2] (10 μM of cytochalasin B), the “effect of cytochalasin B on reaction” value is “decrease in a reaction to CD8-positive T cells”. In addition, in assay [2] (dendritic cells pulsed with 1 μM peptide), the “antigen presentation by MHC class I” value is “presented as an antigen by MHC class I”.

B1: XAGE-1b protein: XAGE-1b protein (81 amino acids, SEQ ID. No. 1) synthesized by GL Biochem; cancer/testis antigen (protein, listed as Homo sapiens)
chain: MESPKKKNQQLKVGILHLGSRQKKIRIQLRSQCATWKVICKSCISQTPGINLDLGSGVKVKIIPKEEHCKMPEAGEEQPQV
Take B1: the “reaction on stimulation with self-dendritic cells pulsed with antigen” value in assay [3] and in assay [5] was “production of antigen-specific IFN-γ” each time. The “antibody reaction to XAGE-1b” value in assay [4] (50 cases of normal healthy subjects) is on record as “no antibody reaction to XAGE-1b was observed”. Also, the “XAGE-1b serum antibody titer-positive cases” value in assay [4] (Non-small-cell lung cancer (n = 200)) was 20 (10.0%) n (%); in assay [4] (Stage 3B/4 lung adenocarcinoma (n = 69)) it was 13 (18.8%) n (%).
